According to patent publication US9301922B1, “Stable high strength pharmaceutical composition of levoleucovorin” (APROFOL AG, priority 2013, dated 2016):

Test: Solubility in water (observation)
Assay type: physicochemical
Experimental: 4.0 g of levoleucovorin calcium (6.7 mmol) are suspended in 100 ml water. The slurry is heated up to about 40° C. to obtain a clear solution. 1.0 g of zinc acetate dihydrate (4.6 mmol) in 10 ml water is slowly added. A precipitate is formed immediately. After one day the precipitate is separated from the mother liquor.

Solubility in water: almost insoluble in water
SMILES: Nc1nc2c(c(=O)[nH]1)N(C=O)[C@@H](CNc1ccc(C(=O)N[C@@H](CCC(=O)[O-])C(=O)[O-])cc1)CN2.[Zn+2] [levoleucovorin zinc]
